“Also recorded” adds a separate entry of the source.
Key:
CXCR4 = assay: Western blot of CXCR4 in lipid raft membrane fractions of THP-1 cells; format: cell-based, human
Experimental: FIG. 15A-B—Western blot analysis of the colocalization of CXCR4 in fractions of cell membranes enriched in lipid rafts (fractions 3-5) and depleted of lipid rafts (fractions 9-11). Panel A: Hematopoietic THP-1 cells were stimulated by C3a (1 μg/mL) or desArgC3a (1 μg/mL) or not stimulated (control). CXCR4 was detected in these membrane fractions by Western blot along with ganglioside GM1, a marker of lipid rafts. Experiments were performed three times with similar results. Panel B: In control experiments, cells were pretreated for 1 hr with 10 mM MβCD. A representative study is shown.
Furthermore, direct evidence of the effect of priming agents on CXCR4 incorporation into membrane lipid rafts was obtained from Western blot analysis of CXCR4 expression in various fractions of cell membranes isolated according to their lipid raft content (Example 2, FIG. 15A-B). […] The role of C3a in incorporation of CXCR4 into membrane lipid rafts in UCB cells and involvement of other signaling molecules to this phenomenon will be evaluated in Aim 1.

[1] = tested on: human BM- and UCB-derived CD34+ cells; assay: Homing of primed human CD34+ cells into BM of lethally irradiated NOD/SCID mice; format: in vivo
Source text: FIG. 16A-B—Panel A: C3a primes homing of murine CFU-GM and CFU-S into BM of lethally irradiated mice. Murine BM-derived Sca-1^+ cells (10^5/mouse) were transplanted into lethally irradiated syngeneic mice. At 16 hrs after transplant, cells were recovered from the femurs of transplanted animals and assayed in secondary cultures for the number of clonogenic CFU-GM (left panel) and, after transplant into secondarily irradiated animals, for the number of day-12 CFU-S (right panel). Data are pooled from three independent experiments using 10 mice each/tested cells (n=30). * p<0.0001. No HSPC cells were recovered from the marrow cavities of control animals (irradiated, not transplanted) Panel B: C3a primes homing of human CB and BM CD34^+ cells into the BM of lethally irradiated NOD/SCID mice. […] Data are pooled from independent experiments preformed on three different CB- and three different BM samples using 2-4 mice/tested cell sample. p<0.0001.
As final proof of our hypothesis and to test whether the primed cells home better to BM, we primed murine BM-derived Sca-1^+ and human BM- and UCB-derived CD34^+ cells with C3a before their transplantation into lethally irradiated mice. Sixteen hrs after transplantation, recipient mice were sacrificed and cells were recovered from their marrow cavities. […]

[2] = tested on: UCB progenitors (human CD45 cells); assay: Long-term human engraftment of C3a primed UCB in NOD/SCID mice; format: in vivo
Experimental: FIG. 5A-B—Long-Term Engraftment of C3a Primed Progenitors (comprising upper and lower panels).
FIG. 54A-B—NOD.SCID engraftment comparing C3a Primed UCB vs. Control. […] 54A—control; 54B—C3a
These laboratory experiments were performed to evaluate responsiveness of UCB to SDF-1 gradient correlated with an outcome of injections in NOD/SCID mice to evaluate engraftment in vivo. In vivo studies incorporated humanized NOD.SCID/IL2rγ^null (NOG) mice were conducted to assess proportions and kinetics of human HSC homing, engraftment, comparing C3a primed UCB CD34^+ HSC vs. controls. NOD.SCID/IL2rγ^null is used in our studies as these mice lack the cytoplasmic region of the IL-2Rγ and reproducibly develop human T, myeloid, NK, and B-lymphoid cells when transplanted with cord blood CD34^+ cells. This model therefore provides a platform to analyze in vivo competitive repopulation of the full lymphopoietic system. […] More mature progenitors are considered to have exhausted after 8 weeks in this NOD.SCID model and human cells present are presumed to be derived from transplanted primitive progenitor cells. HLA staining was used to determine UCB chimerism and relative contribution of C3a primed UCB CD34^+ HSC to marrow engraftment.

Sca-1+ cells = assay: Hematopoietic recovery of lethally irradiated mice given C3a primed Sca-1+ cells; format: in vivo
Source text: FIG. 6A-B—Sca-1^+ Cells Primed with C3a Engraft Faster in Lethally Irradiated Mice. 6A—left panel; 6B—right panel.

[3] = C3a primed hematopoietic progenitors

## C3a: 77 amino acid residue protein derived from the human complement C3a precursor; SEQ ID NO:1
CXCR4
  incorporation of Rac-1 into membrane lipid rafts: increased the incorporation of Rac-1
CXCR4; 1 μg/mL
  incorporation of CXCR4 into GM1-enriched membrane lipid rafts (fractions 3-5): stimulates incorporation of CXCR4
[1]; 24 h after injection of NOD/SCID mice, C3a primed UCB CD34+ HSC
  marrow homing, number of CFU-GM harvested per femur: enhanced marrow homing
[1]; CB and BM CD34+ cells preincubated with C3a 30 min, 16 hrs after transplantation
  homing of human CFU-GM into BM: home more efficiently; also recorded: homed better; also recorded: primes homing
[2]; NOD.SCID at 8 weeks after injection, vs control
  human CD45 cells detected by FACS in marrow: significantly higher
[2]; NOD/SCID mice harvest after 12 weeks, vs unprimed cells
  long-term human engraftment, flow cytometry for human anti-CD45: exhibit long-term human engraftment
Sca-1+ cells; [3]
  faster rate of leukocyte recovery relative to untreated mice: 5 days
  platelet counts: benefit in platelet counts
Sca-1+ cells; murine studies
  infusional toxicity and coagulopathy: neither infusional toxicity nor evidence of coagulopathy was observed

From US9233127B2, “Compositions and methods for CXCR4 signaling and umbilical cord blood stem cell engraftment” (University of Virginia Patent Foundation, priority 2012, dated 2016)
